Experimental data reported in publication PMC10641813 (Journal of Medicinal Chemistry, 2023).
Where “and” joins values, the source holds several entries; their conditions need not be identical. Equal values may be shown once.

Key:
hCA IX = molecular target: T1, hCA IX (Homo sapiens, UniProt Q16790); assay: Stopped flow CO2 hydrase assay, hCA IX; type: biochemical; conditions: stopped flow technique, mean from three assays
T1 construct: made in house

HT29/DX cells [1] = assay: Viability of HT29/DX cells with DOX alone or coincubated with 15 (WST-1); type: cell-based, human; conditions: 72 h
Description: (§1) Cells were seeded in 96-well plates.

MDA-MB 231 cells = assay: Inhibition of MDA-MB 231 TNBC cell growth (hypoxia, cell counting); conditions: 72 h, 1% O2
Description: (§7) Cells were grown in Dulbecco’s modified Eagle’s medium (D-MEM) supplemented with 10% fetal bovine serum (FBS) at 37 °C with 5% CO2. In all experiments, 300,000 cells were plated in 9 cm^2 dishes and exposed to test compound dissolved in DMSO (0.1% final concentration) at the indicated concentrations. […] Cells were kept at low passage, returning to the original frozen stocks every 3–4 months. Hypoxic culture conditions were realized in the presence of 1% O2 and 5% CO2. […] After 72 h of incubation at 37 °C with 1% O2 and 5% CO2, cells were trypsinized, and cell counting was performed with the MACSQuant analyzer (Miltenyi Biotec).[76]

MDCK/P-gp cells [2] = assay: Intracellular accumulation of DOX in MDCK/P-gp cells; type: cell-based, canine; conditions: 5 μM DOX 3 h, 15 at 1, 10, 100 nM
Description: (§2) In this model, also at the highest concentration (100 nM), the compound was not able to fully restore the accumulation of the drug to the intracellular level of MDCK cells, which were devoid of P-gp.
(§3) Figure S5. Dose-dependent viability of HT29 and HT29/DX (A), MDCK and MDCK/P-gp (B) cells, incubated with increasing concentrations (0-10 µM) of 15 for 72 h, measured with a spectrophotometric assay. Data are means ± SD (n = 3). **p<0.01, ***p<0.001: versus untreated cells (“0”). […]
(§4) drug retention was measured spectrofluorimetrically. Data are means ± SD (n=3)., ***p<0.001: versus HT29 or […]

MCF-7 cells = assay: Inhibition of growth of MCF-7 cells; type: cell-based, human; conditions: human nonmetastatic breast cancer epithelial cells
Description: (§5) ; 11 and 15, NCI/ADR-RES and OVCAR-8 cells) to 4.8 (19, OVCAR-8 cells). […] . […] Cells were seeded in 96-well plates.

NCI/ADR-RES cells = assay: Inhibition of growth of NCI/ADR-RES DOX-resistant cells; type: cell-based, human; conditions: DOX-resistant cell line derived from OVCAR-8, 96 h
Description: as §5

P-gp [3] = molecular target: T2, P-gp (Homo sapiens, UniProt P08183); assay: P-gp ATPase activity, protein immunopurified from MDCK/P-gp cells; conditions: for Pgp activity (rate of ATP hydrolysis) MDCK-Pgp: 3 h, single replicates of I-III exp
T2 sequence (P08183 whole entry): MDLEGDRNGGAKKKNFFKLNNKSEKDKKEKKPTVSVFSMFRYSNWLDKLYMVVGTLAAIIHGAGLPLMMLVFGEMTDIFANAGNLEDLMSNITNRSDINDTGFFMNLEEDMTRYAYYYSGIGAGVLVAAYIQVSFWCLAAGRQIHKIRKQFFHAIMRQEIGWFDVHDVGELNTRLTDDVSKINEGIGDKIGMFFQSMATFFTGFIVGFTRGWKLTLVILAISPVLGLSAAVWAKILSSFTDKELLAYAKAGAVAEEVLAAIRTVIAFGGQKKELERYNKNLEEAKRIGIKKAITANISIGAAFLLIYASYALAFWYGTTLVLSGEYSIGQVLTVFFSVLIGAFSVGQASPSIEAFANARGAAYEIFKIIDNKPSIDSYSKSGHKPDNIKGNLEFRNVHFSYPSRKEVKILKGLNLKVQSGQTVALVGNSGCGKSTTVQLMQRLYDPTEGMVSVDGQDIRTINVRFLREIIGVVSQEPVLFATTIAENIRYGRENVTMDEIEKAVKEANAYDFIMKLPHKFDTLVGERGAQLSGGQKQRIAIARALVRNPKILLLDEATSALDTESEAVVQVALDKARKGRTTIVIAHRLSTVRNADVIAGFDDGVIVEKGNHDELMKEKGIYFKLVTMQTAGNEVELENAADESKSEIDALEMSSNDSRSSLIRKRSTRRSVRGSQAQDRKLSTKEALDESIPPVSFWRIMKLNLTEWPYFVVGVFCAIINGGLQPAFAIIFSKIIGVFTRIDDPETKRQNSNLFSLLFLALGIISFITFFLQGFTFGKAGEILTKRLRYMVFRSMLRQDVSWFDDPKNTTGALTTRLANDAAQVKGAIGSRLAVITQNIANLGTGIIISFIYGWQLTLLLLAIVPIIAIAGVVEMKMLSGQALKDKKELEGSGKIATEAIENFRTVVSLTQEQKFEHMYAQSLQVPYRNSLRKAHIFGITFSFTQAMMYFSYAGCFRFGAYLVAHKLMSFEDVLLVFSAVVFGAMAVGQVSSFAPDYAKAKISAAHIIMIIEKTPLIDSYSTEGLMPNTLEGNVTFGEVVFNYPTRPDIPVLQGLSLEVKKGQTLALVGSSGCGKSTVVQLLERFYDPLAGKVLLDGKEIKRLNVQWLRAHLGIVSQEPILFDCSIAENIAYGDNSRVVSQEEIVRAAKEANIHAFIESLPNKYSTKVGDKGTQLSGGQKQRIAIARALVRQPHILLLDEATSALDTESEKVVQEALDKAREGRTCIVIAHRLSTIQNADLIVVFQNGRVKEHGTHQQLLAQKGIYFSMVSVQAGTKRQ
Description: (§8) 100 μg of each immunopurified protein was incubated for 30 min at 37 °C with 50 μL of the reaction mixture (25 mM Tris/HCl, 3 mM ATP, 50 mM KCl, 2.5 mM MgSO4, 3 mM dithiothreitol, 0.5 mM EGTA, 2 mM ouabain, 3 mM NaN3; pH 7.0). […] After 30 min incubation at room temperature, the absorbance of the phosphate hydrolyzed from ATP was measured at 620 nm, using a Packard EL340 microplate reader. The absorbance was converted into nmoles hydrolyzed phosphate (Pi)/min/mg protein, according to the titration curve previously prepared.

P-gp [4] = molecular target: T2, P-gp; assay: P-gp ATPase activity, protein immunopurified from HT29/DX cells; conditions: for Pgp activity (rate of ATP hydrolysis) HT29/DX: 3 h, single replicates of I-III exp
Description: as §8

HCT116 cells = assay: Inhibition of growth of HCT116 cells (MTT); conditions: read-out: IC50 HCT116; human colorectal carcinoma cells; combinations: each compound at its IC50 concentration
Description: (§9) In drug combination studies, each compound was used at the corresponding IC50 concentration.
(§10) Cells were grown in Dulbecco’s modified Eagle’s medium (D-MEM) supplemented with 10% fetal bovine serum (FBS) at 37 °C with 5% CO2. In all experiments, 300,000 cells were plated in 9 cm^2 dishes and exposed to test compound dissolved in DMSO (0.1% final concentration) at the indicated concentrations. […] Cells were kept at low passage, returning to the original frozen stocks every 3–4 months.

[5] = tested on: Wnt/β-catenin signaling pathway; assay: Wnt reporter assay (TOPFlash/FOPFlash luciferase) in HEK293T cells; conditions: HEK 293T cells, LiCl 50 mM
Description: HEK293T cells were seeded at 2 × 10^4 cells/cm^2 in triplicate in a 24-well plate.

HT29 cells = assay: Viability of HT29 cells with DOX alone or coincubated with 15 (WST-1); type: cell-based, human; conditions: 15 at 1, 10, 100 nM coincubated with 5 μM DOX, 72 h
Description: as §1

OVCAR-8 cells = assay: Inhibition of growth of OVCAR-8 cells; type: cell-based, human; conditions: ovarian tumor cell line 8, 96 h
Description: as §5

MDCK cells = assay: Viability of MDCK cells with DOX alone or coincubated with 15 (WST-1); type: cell-based, canine; conditions: MDCK cells, 15 at 1, 10, 100 nM coincubated with 5 μM DOX, 72 h
Description: as §1

BT-549 cells = assay: Inhibition of BT-549 TNBC cell growth (hypoxia, cell counting); conditions: 72 h, 1% O2
Description: as §7

[6] = tested on: human primary T lymphocytes; assay: Toxicity on human primary T lymphocytes (annexin V/propidium iodide flow cytometry); conditions: 30 μM, 72 h, healthy/normal T cells
Description: After 72 h, the frequency of late apoptotic cells was assayed by staining with annexin V and propidium iodide.
Potential toxicity on healthy cells was evaluated by treating human primary T lymphocytes from two healthy donors with 30 μM 15 or with a control vehicle (DMSO). Healthy donors’ peripheral blood mononuclear cells (PBMCs) were isolated by Lymphoprep (Nycomed) gradient centrifugation. T lymphocytes were negatively selected from PBMCs using magnetic Dynabeads Untouched Human T Cells Kit (Thermo Fisher Scientific) following the manufacturer’s instructions. Apoptotic cell death was evaluated using APC Annexin-V Apoptosis Detection Kit with PI (Thermo Fisher Scientific). […] Cells were then stained using annexin-V/APC and propidium iodide according to the manufacturer’s instruction. Cell populations were acquired using a FACS Canto II flow cytometer (BD Biosciences). Flow cytometric analysis was performed using Flow Jo Flow Cytometric Analysis Software.

SW620 cells = assay: Inhibition of growth of SW620 cells (XTT); conditions: read-out: IC50 SW620; human colorectal carcinoma cells; combinations: each compound at its IC50 concentration
Description: as §9, §10

MDCK/P-gp cells [7] = assay: Viability of MDCK/P-gp cells with DOX alone or coincubated with 15 (WST-1); type: cell-based, canine; conditions: 72 h
Description: as §1

SW480 cells = assay: Inhibition of growth of SW480 cells (XTT); conditions: read-out: IC50 SW480; human colorectal carcinoma cells; combinations: each compound at its IC50 concentration
Description: as §9, §10

HT29/DX cells [8] = assay: Intracellular accumulation of DOX in HT29/DX cells; type: cell-based, human; conditions: 5 μM DOX 3 h, 15 at 1, 10, 100 nM
Description: as §2, §3, §4

[9] = tested on: HT29, HT29/DX, MDCK and MDCK/P-gp cells; assay: Cytotoxicity of 15 alone (WST-1 viability); conditions: 1–100 nM 15 alone, 72 h, four cell lines
Description: Cell lines were obtained from the American Tissue Culture Collection (ATCC), unless specified otherwise. Cells were grown in Dulbecco’s modified Eagle’s medium (D-MEM) supplemented with 10% fetal bovine serum (FBS) at 37 °C with 5% CO2. In all experiments, 300,000 cells were plated in 9 cm^2 dishes and exposed to test compound dissolved in DMSO (0.1% final concentration) at the indicated concentrations. […] Cells were kept at low passage, returning to the original frozen stocks every 3–4 months. […] Human chemosensitive HT29 colon cancer cells were purchased from ATCC (Manassas, VA). […] MDCK and MDCK/P-gp (a gift of Prof. P. Borst, NKI-AVL Institute, Amsterdam, The Netherlands) were grown in DMEM high glucose supplemented with 10% FBS, 1% penicillin, 1% v/v penicillin–streptomycin, and 1% v/v glutamine. […] Cells were seeded in 96-well plates. […] Cell viability was evaluated using the WST-1 assay (Sigma-Merck), as per the manufacturer’s instructions, using a Packard EL340 microplate reader (Bio-Tek Instruments, Winooski, VT). The absorbance units of the untreated cells were considered 100%; the absorbance units of the other experimental conditions were expressed as a percentage versus the absorbance units of the untreated cells.

tubulin = assay: Tubulin assembly (polymerization) assay; type: biochemical; conditions: at 20 μM
Description: The reaction mixtures contained 0.8 M monosodium glutamate (pH 6.6 with HCl in a 2 M stock solution), 10 μM tubulin, 4% (v/v) DMSO, and varying concentrations of compound. […] The extent of the reaction was measured.

[10] = tested on: Wnt target genes Fgf20 and Sall4; assay: Fgf20 and Sall4 mRNA levels in HCT116 cells (qPCR); type: cell-based, human
Description: Total mRNA was isolated from cells with TriReagent (#R2050–1–200 Zymo Research), and complementary DNA (cDNA) was synthesized by the Sensifast cDNA synthesis kit (#BIO-65054 Bioline). Quantitative PCR was performed with SensiFast Sybr Lo-Rox Mix (#BIO-94020 Bioline), using an Applied Biosystems ViiA 7 Real-Time PCR System instrument (doi: 10.1038/s41389-019-0175-6) and the following amplification primers: • β-actin forward: […]; • β-actin reverse: […]; • Fgf20 forward: […]; • Fgf20 reverse: […]; • Sall4 forward: […]; • Sall4 reverse: […].

[11] = tested on: cleaved PARP and cleaved caspase-3 in HCT116 cells; assay: Markers of apoptosis in HCT116 cells (Western blot); type: cell-based, human; conditions: increasing concentrations, 72 h
From the text: Detection of cleaved poly(ADPribose) polymerase (PARP) by antibodies is considered a prominent marker of apoptosis. […] Overexpression of the 24 kDa N-terminal fragment inhibits DNA repair and ADPribose formation and stimulates apoptosis,[45] with consequent increase of PARP full-length/cleaved ratio and a darker cleaved band. During apoptosis, caspase-3 is a major cause of proteolysis. Detection of cleaved caspase-3 is also a reliable marker of apoptosis since it allows the quantification of cells that are dying or have died by apoptosis.[46]
(§6) Western blot was performed as previously described.[79] […] Cell lysates were subjected to SDS-polyacrylamide gel electrophoresis and transferred to a nitrocellulose membrane. The membrane was blocked, washed, and incubated with primary antibodies at 37 °C overnight [anti-β-catenin (D10A8) XP mAb #8480 (Cell Signaling), anti-cMyc #9402S (Cell Signaling), anticleaved caspase 3 (Asp175) #9661 (Cell Signaling), and anti-PARP #9542S (Cell Signaling)]. After the membrane was washed, it was incubated with secondary antibodies at 37 °C for 30 min. The membrane was washed again with Tris-buffered saline/Tween-20, and the samples were exposed and imaged using the WesternBright ECL solution (#K-12045-D50 Advansta).

[12] = tested on: β-catenin and MYC in HCT116 cells; assay: β-Catenin and c-Myc levels in HCT116 cells (Western blot); type: cell-based, human; conditions: LiCl 50 mM, 24 h
Description: as §6

[13] = Viability of MDCK cells with DOX alone or coincubated with 15 (WST-1); type: cell-based, canine; conditions: dog, MDCK cells (sensitive, parental); read-out: cell viability
Description: as §1

[14] = 15 at 1, 10, 100 nM coincubated with 5 μM DOX

For “4-(3-Phenyl-4-(3,4,5-trimethoxybenzoyl)-1H-pyrrol-1-yl)benzenesulfonamide [Compound 15]”, the Ki (hCA IX) was 0.0241 µM, the “cell viability compared with DOX alone” value (HT29/DX cells [1]; [14]) was “decreased cell viability in a dose-dependent manner” and the “Inhibition of MDA-MB 231 TNBC cell growth” value (MDA-MB 231 cells) was “potent antiproliferative effect”. The “intracellular accumulation of DOX” value (MDCK/P-gp cells [2]) was “increasing DOX accumulation”, the IC50 (MCF-7 cells) was 1.9 to 2.1 µM and 1.9 µM and the IC50 (NCI/ADR-RES cells) was 1.9 µM and 1.9 to 2.1 µM and 2.1 µM. For the same molecule, the “Pgp activity (rate of ATP hydrolysis) MDCK-Pgp” value (P-gp [3]; 15 at 1 nM) was 5.2 nmol Pi × min-1 × mg protein-1 and 5.6 nmol Pi × min-1 × mg protein-1 (2×) and 5.4 nmol Pi × min-1 × mg protein-1 (2×) and 5.5 nmol Pi × min-1 × mg protein-1 and 5.9 nmol Pi × min-1 × mg protein-1 and 5.1 nmol Pi × min-1 × mg protein-1 and 5.3 nmol Pi × min-1 × mg protein-1, the “Pgp activity (rate of ATP hydrolysis) MDCK-Pgp” value (P-gp [3]; 15 at 10 nM) was 3.4 nmol Pi × min-1 × mg protein-1 (3×) and 3.2 nmol Pi × min-1 × mg protein-1 (3×) and 3.0 nmol Pi × min-1 × mg protein-1 and 3.9 nmol Pi × min-1 × mg protein-1 and 3.8 nmol Pi × min-1 × mg protein-1 and the “Pgp activity (rate of ATP hydrolysis) MDCK-Pgp” value (P-gp [3]; 15 at 100 nM) was 2.1 nmol Pi × min-1 × mg protein-1 and 2.4 nmol Pi × min-1 × mg protein-1 (2×) and 2.3 nmol Pi × min-1 × mg protein-1 and 1.6 nmol Pi × min-1 × mg protein-1 and 1.8 nmol Pi × min-1 × mg protein-1 (2×) and 1.7 nmol Pi × min-1 × mg protein-1 and 1.5 nmol Pi × min-1 × mg protein-1. The “effect on P-gp activity” value (P-gp [3]; MDCK/P-gp, starting at 10 nM) was “reduced P-gp activity”, the “Pgp activity (rate of ATP hydrolysis) HT29/DX” value (P-gp [4]; 15 at 1 nM) was 0.7 nmol Pi × min-1 × mg protein-1 (2×) and 0.8 nmol Pi × min-1 × mg protein-1 (3×) and 0.9 nmol Pi × min-1 × mg protein-1 and 0.6 nmol Pi × min-1 × mg protein-1 (2×) and 1.0 nmol Pi × min-1 × mg protein-1 and the “Pgp activity (rate of ATP hydrolysis) HT29/DX” value (P-gp [4]; 15 at 10 nM) was 0.4 nmol Pi × min-1 × mg protein-1 (3×) and 0.6 nmol Pi × min-1 × mg protein-1 (3×) and 0.5 nmol Pi × min-1 × mg protein-1 (2×) and 0.7 nmol Pi × min-1 × mg protein-1. The “Pgp activity (rate of ATP hydrolysis) HT29/DX” value (P-gp [4]; 15 at 100 nM) was 0.1 nmol Pi × min-1 × mg protein-1 and 0.2 nmol Pi × min-1 × mg protein-1 (3×) and 0.3 nmol Pi × min-1 × mg protein-1 (5×), the “effect on P-gp activity” value (P-gp [4]; HT29/DX, starting at 10 nM) was “reduced P-gp activity” and the IC50 (HCT116 cells) was 8.7 ± 1.4 µM. The TOP reporter activity ([5]; increasing concentrations, 24 h) was “significant and dose-dependent inhibition”, the FOP reporter activity ([5]; negative control reporter) was “did not significantly prevent the activity” and the “cell viability compared with DOX alone” value (HT29 cells) was “did not further reduce cell viability”. The IC50 (OVCAR-8 cells) was 1.9 to 2.1 µM and 1.9 µM, the “cell viability compared with DOX alone” value (MDCK cells) was “did not further reduce cell viability” and the “Inhibition of BT-549 TNBC cell growth” value (BT-549 cells) was “significantly impaired cell growth”. For the same molecule, the “increase in cell death compared to the control vehicle” value [6] was 6–8%, the IC50 (SW620 cells) was 23.8 ± 1.4 µM and the “cell viability compared with DOX alone” value (MDCK/P-gp cells [7]; [14]) was “decreased cell viability in a dose-dependent manner”. For the same molecule, the IC50 (SW480 cells) was 17.7 ± 1.3 µM, the “intracellular accumulation of DOX” value (HT29/DX cells [8]) was “strong dose-dependent increase” and the cell viability [9] was over 75%. The “inhibition of tubulin assembly” value (tubulin) was “partial inhibition”, the “expression of Wnt target genes Fgf20 and Sall4” value [10] was “significantly reduced the expression” and the “cleaved PARP and cleaved caspase-3 levels” value [11] was “increments of cleaved PARP and cleaved caspase-3”. The “β-catenin and MYC levels” value [12] was “marked reduction”.
With `COc1cccc2c1C(=O)c1c(O)c3c(c(O)c1C2=O)C[C@@](O)(C(=O)CO)C[C@@H]3O[C@H]1C[C@H](N)[C@H](O)[C@H](C)O1` [DOX, doxorubicin, reference compound] the cell viability (HT29/DX cells [1]; 5 μM DOX alone) was “did not affect the viability”, the viability at 72 h, 5 μM [13] was under 30% and the cell viability (MDCK/P-gp cells [7]; 5 μM DOX alone) was “did not affect the viability”.
